# Measurements taken from patent publication US20240343717A1, “MICROBIOCIDAL PYRAZOLE DERIVATIVES” (SYNGENTA CROP PROTECTION AG, priority 2021, published 2024).
# Assays:
# [1] = test system: Magnaporthe grisea (Pyricularia Oryzae); assay: whole plant or invertebrate; type: in vivo; settings: foliar, read-out: control of Magnaporthe grisea
# [2] = test system: Glomerella lagenarium (Colletotrichum lagenarium); assay: Glomerella lagenarium (Colletotrichum lagenarium) / liquid culture (anthracnose); type: cell-based; settings: Colletotrichum orbiculare, growth inhibition photometrically 3-4 days after application, read-out: control of Glomerella lagenarium
# Outline: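 Cryo-stored conidia in potato dextrose broth were added to test compound in DMSO. Plates were incubated at 24° C, and growth inhibition was read photometrically 3-4 days after application.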
# [3] = test system: Blumeria graminis f. sp. tritici (Erysiphe graminis f. sp. tritici); assay: Blumeria graminis f. sp. tritici / wheat / leaf disc preventative (powdery mildew on wheat); type: in vivo; settings: foliar, wheat leaf segments, inoculated 1 day after application
# Outline: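 Wheat cv. Kanzler leaf segments on agar sprayed with formulated compound in water, inoculated 1 day later by shaking mildew-infected plants overhead. Incubated at 20° C, 60% rh, 24 h dark then 12 h light/12 h dark. Percent disease control versus untreated scored 6-8 days after application.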
# [4] = test system: Sclerotinia sclerotiorum; assay: Sclerotinia sclerotiorum / liquid culture (cottony rot); type: cell-based; settings: growth inhibition photometrically 3-4 days after application, read-out: control of Sclerotinia sclerotiorum
# Outline: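 Mycelial fragments from fresh liquid culture in potato dextrose broth added to test compound in DMSO. Incubation at 24° C; growth inhibition read photometrically 3-4 days after application.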
# [5] = test system: Mycosphaerella arachidis (Cercospora arachidicola); assay: Mycosphaerella arachidis (Cercospora arachidicola) / liquid culture (early leaf spot); type: cell-based; settings: growth inhibition photometrically 4-5 days after application, read-out: control of Mycosphaerella arachidis
# Outline: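 Spores taken straight from cryostorage are suspended in potato dextrose broth and added to test compound in DMSO. Plates are incubated at 24° C. Growth inhibition is scored photometrically 4-5 days after application.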
# [6] = test system: Pyrenophora teres; assay: Pyrenophora teres / barley / leaf disc preventative (net blotch); type: in vivo; settings: foliar, barley leaf segments, inoculated 2 days after application
# Outline: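 Barley cv. Hasso leaf segments on agar sprayed with formulated compound, inoculated with spores 2 days later. Incubated at 20 °C, 65% rh, 12 h light/dark; disease control versus untreated assessed 5–7 days after application.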
# [7] = test system: Mycosphaerella graminicola (Septoria tritici); assay: Mycosphaerella graminicola (Septoria tritici) / liquid culture (Septoria blotch); type: cell-based; settings: Zymoseptoria tritici, growth inhibition photometrically 4-5 days after application, read-out: control of Mycosphaerella graminicola
# Outline: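 Conidia suspended in potato dextrose broth and added to test compound supplied in DMSO in 96-well plates. Incubated at 24 °C, and growth inhibition read photometrically 4-5 days after application.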
# [8] = test system: Phaeosphaeria nodorum (Septoria nodorum); assay: Phaeosphaeria nodorum (Septoria nodorum) / wheat / leaf disc preventative (glume blotch); type: in vivo; settings: Parastagonospora nodorum, foliar, wheat leaf segments, inoculated 2 days after application
# Outline: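 Wheat cv. Kanzler leaf segments on agar sprayed preventatively with formulated compound diluted in water, then inoculated with spore suspension 2 days after application. Incubated at 20° C, 75% rh, 12 h light/12 h dark; percent disease control versus untreated scored 5-7 days after application.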
# [9] = test system: Fusarium culmorum; assay: microbe, parasite or virus in culture; type: cell-based; settings: read-out: control of Fusarium culmorum
# [10] = test system: Botryotinia fuckeliana (Botrytis cinerea); assay: Botryotinia fuckeliana (Botrytis cinerea) / liquid culture (gray mould); type: cell-based; settings: growth inhibition photometrically 3-4 days after application, read-out: control of Botryotinia fuckeliana
# Outline: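 Conidia suspended in Vogels broth and added to compound dispensed from DMSO. Incubated at 24°C, with growth inhibition measured photometrically 3–4 days later.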
# [11] = test system: Monographella nivalis (Microdochium nivale); assay: Monographella nivalis (Microdochium nivale) / liquid culture (foot rot cereals); type: cell-based; settings: growth inhibition photometrically 4-5 days after application, read-out: control of Monographella nivalis
# Outline: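 Fungal conidia mixed directly into potato dextrose broth and added to test compound delivered in DMSO. Incubated at 24° C; growth inhibition read photometrically 4-5 days after application.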
# [12] = test system: Alternaria solani; assay: Alternaria solani / tomato / leaf disc (early blight); type: in vivo; settings: foliar, tomato leaf disks, sprayed 2 days before inoculation, compared to untreated control
# Procedure: Example B1: Alternaria solani/Tomato/Leaf Disc (Early Blight) Tomato leaf disks cv. Baby are placed on agar in multiwell plates (24-well format) and sprayed with the formulated test compound diluted in water. The leaf disks are inoculated with a spore suspension of the fungus 2 days after application. The inoculated leaf disks are incubated at 23° C./21° C.
# [13] = test system: Fusarium culmorum; assay: whole plant or invertebrate; type: in vivo; settings: in Triticum aestivum, read-out: control of Fusarium culmorum
# [14] = test system: Puccinia recondita f. sp. tritici; assay: Puccinia recondita f. sp. tritici / wheat / leaf disc curative (brown rust); type: in vivo; settings: 200 ppm, wheat leaf segments, applied 1 day after inoculation
# Procedure: Example B11: Puccinia recondita f. Sp. Tritici/Wheat/Leaf Disc Curative (Brown Rust)
# Wheat leaf segments cv. Kanzler are placed on agar in multiwell plates (24-well format). The leaf segments are inoculated with a spore suspension of the fungus. Plates are stored in darkness at 19° C. and 75% rh. The formulated test compound diluted in water is applied 1 day after inoculation. The leaf segments are incubated at 19° C. and 75% rh under a light regime of 12 h light/12 h darkness in a climate cabinet and the activity of a compound is assessed as percent disease control compared to untreated when an appropriate level of disease damage appears in untreated check leaf segments (6-8 days after application).
# [15] = test system: Gibberella zeae (Fusarium graminearum); assay: whole plant or invertebrate; type: in vivo; settings: in Triticum aestivum, read-out: control of Gibberella zeae
SMILES,pest or weed control at 200 ppm [1],inhibition of growth at 20 ppm [2],pest or weed control at 200 ppm [3],inhibition of growth at 20 ppm [4],inhibition of growth at 20 ppm [5],pest or weed control at 200 ppm [6],inhibition of growth at 20 ppm [7],pest or weed control at 200 ppm [8],inhibition of growth at 20 ppm [9],inhibition of growth at 20 ppm [10],inhibition of growth at 20 ppm [11],pest or weed control at 200 ppm [12],pest or weed control at 200 ppm [13],control of Puccinia recondita f. sp. tritici [14],pest or weed control at 200 ppm [15],melting point
"Cc1ccc(C(C)(CNC(=O)c2cc(-c3ccc(F)cc3F)on2)c2cnn(C)c2)nc1Br (stereo not shown) [Compound P-110, N-[2-(6-bromo-5-methyl-2-pyridyl)-2-(1-methylpyrazol-4-yl)propyl]-5-(2,4-difluorophenyl) isoxazole-3-carboxamide]",≥ 80%,≥ 80%,≥ 80%,≥ 80%,≥ 80%,≥ 80%,≥ 80%,≥ 80%,≥ 80%,≥ 80%,≥ 80%,≥ 80%,,,,
"CO/N=C(\C)c1cccc(C(C)(CNC(=O)c2cc(-c3ccc(F)cc3F)on2)c2cnn(C)c2)n1 (stereo not shown) [Compound P-49, 5-(2,4-difluorophenyl)-N-[2-[6-[(E)-N-methoxy-C-methyl-carbonimidoyl]-2-pyridyl]-2-(1-methylpyrazol-4-lyl)propyl]isoxazole-3-carboxamide]",≥ 80%,≥ 80%,≥ 80%,≥ 80%,≥ 80%,≥ 80%,≥ 80%,≥ 80%,≥ 80%,≥ 80%,≥ 80%,≥ 80%,≥ 80%,,,
"Cn1cc(C(C)(CNC(=O)c2cc(-c3ccc(F)cc3F)on2)c2cccc(Cl)n2)cn1 (stereo not shown) [Compound P-10, N-[2-(6-chloro-2-pyridyl)-2-(1-methylpyrazol-4-yl)propyl]-5-(2,4-difluorophenyl)isoxazole-3-carboxamide]",≥ 80%,≥ 80%,≥ 80%,≥ 80%,≥ 80%,≥ 80%,≥ 80%,≥ 80%,≥ 80%,≥ 80%,≥ 80%,≥ 80%,≥ 80%,,,
"Cc1ccc(C(C)(CNC(=O)c2cc(-c3ccc(F)cc3F)on2)c2cnn(C)c2)nc1 (stereo not shown) [Compound P-19, 5-(2,4-difluorophenyl)-N-[2-(1-methylpyrazol-4-yl)-2-(5-methyl-2-pyridyl)propyl] isoxazole-3-carboxamide]",,≥ 80%,≥ 80%,,,≥ 80%,≥ 80%,,,≥ 80%,≥ 80%,≥ 80%,,at least 80%,,
"Cn1cc(C(C)(CNC(=O)c2cc(-c3ccc(F)cc3F)no2)c2cccc(Cl)n2)cn1 (stereo not shown) [Compound P-42, N-[2-(6-chloro-2-pyridyl)-2-(1-methylpyrazol-4-yl)propyl]-3-(2,4-difluorophenyl) isoxazole-5-carboxamide]",≥ 80%,,,≥ 80%,≥ 80%,≥ 80%,≥ 80%,≥ 80%,≥ 80%,≥ 80%,≥ 80%,,≥ 80%,,≥ 80%,126 to 128 °C
"Cn1cc(C(C)(CNC(=O)c2cc(-c3ccc(F)cc3F)on2)c2cccc(C#N)n2)cn1 (stereo not shown) [Compound P-15, N-[2-(6-cyano-2-pyridyl)-2-(1-methylpyrazol-4-yl)propyl]-5-(2,4-difluorophenyl) isoxazole-3-carboxamide]",≥ 80%,≥ 80%,≥ 80%,,≥ 80%,≥ 80%,≥ 80%,≥ 80%,≥ 80%,≥ 80%,≥ 80%,≥ 80%,,,,
"Cn1ncc(C(C)(CNC(=O)c2cc(-c3ccc(F)cc3F)on2)c2cccc(Cl)n2)c1Cl (stereo not shown) [Compound P-26, N-[2-(5-chloro-1-methyl-pyrazol-4-yl)-2-(6-chloro-2-pyridyl)propyl]-5-(2,4-difluorophenyl) isoxazole-3-carboxamide]",≥ 80%,≥ 80%,≥ 80%,≥ 80%,≥ 80%,≥ 80%,≥ 80%,≥ 80%,≥ 80%,≥ 80%,≥ 80%,≥ 80%,,,≥ 80%,
